The values below come from US11427546B2, “Form of isoquinoline sulfonamide” (D. WESTERN THERAPEUTICS INSTITUTE, INC., priority 2018, dated 2022).

“Also recorded” adds a separate entry of the source. Counter-ions that a name gives are not always drawn.

Format in all cases: physicochemical
Data set [1] in a line: Moisture absorption stability comparative test at 50° C./70% RH. Here is the method: Moisture Absorption Stability Comparative Test at 50° C./70% RH
A 100-mg weight of each of the crystals of compounds (3) and (4) obtained in Reference Examples 2 and 3, respectively, and the compound (2) of the present invention obtained in an Example was weighed out in a plastic container and allowed to stand under 50° C./70% RH conditions in a thermo-hygrostat chamber (IH400 from Yamato Scientific Co., Ltd.).

A short description of data set [2]: Moisture absorption stability comparative test in the ambient atmosphere. The settings on record: ambient atmosphere 25° C.-28° C./67%-83% RH; for appearance (moisture absorption): Day 7. Here is the method: Moisture Absorption Stability Comparative Test in the Ambient Atmosphere
About 100 mg of each of the compound (1) obtained in Reference Example 1 and the compound (2) of the present invention obtained in an Example was weighed out in a plastic container and allowed to stand in the ambient atmosphere (25° C.-28° C./67%-83% RH), while minimizing the influence of wind pressure, foreign matter entry, and the like from above and all directions, for 7 days. On Day 0 and Day 7, samples were weighed and examined for appearance.

A short description of data set [3]: Water solubility comparative test. To be noted: for transparency of aqueous solution by visual observation: about 100 mg in 2 mL purified water (5% aqueous solution), room temperature; for precipitate in aqueous solution: about 100 mg in 2 mL purified water, 1 day later. Here is the method: Water Solubility Comparative Test
About 100 mg of each of the compound (1) of Reference Example 1 and the crystal of the compound (2) of the present invention was weighed out in a glass vial, 2 mL of purified water was added, and the mixture was vigorously shaken in an airtight state. After being allowed to stand until the liquid surface fluctuation ceased, the aqueous solution was examined for transparency by visual observation at room temperature.

The nature of data set [4]: Heat stability comparative test. The settings on record: 70° C., airtight glass vial. The protocol:
Heat Stability Comparative Test
About 20 mg of each of the compound (1) of Reference Example 1 and the crystal of the compound (2) of the present invention obtained in an Example was weighed out in a glass vial and stored in a thermostat chamber kept at 70° C. in an airtight state (NA-100N Incubator from NISSIN) for 14 days. On Day 0, Day 7, and Day 14, compound (1) and the compound (2) of the present invention were examined for appearance and purity (HPLC).

Regarding `C[C@H](CNCCc1ccccc1)NS(=O)(=O)c1ccc2cnccc2c1.Cl.Cl` [compound (3), (R)—N-{1-(phenetylamino)propan-2-yl}isoquinoline-6-sulfonamide dihydrochloride, reference compound], the “appearance change due to moisture absorption” value (“appearance change due” below) in data set [1] (after 1 hour of standing) is “marked appearance change due to moisture absorption”.
On to `C[C@H](CNC[C@H](C)c1ccccc1)NS(=O)(=O)c1ccc2cnccc2c1.Cl.Cl` [compound (4), N—[(R)-1-{(R)-2-phenyipropylamino}propan-2-yl]isoquinoline-6-sulfonamide dihydrochloride, reference compound], for which the “appearance change due” value in data set [1] (after 1 hour of standing) is reported as “marked appearance change due to moisture absorption”.
With `C[C@H](CNC[C@@](C)(O)c1ccccc1)NS(=O)(=O)c1ccc2cnccc2c1` [compound (2), N—[(R)-1-{(S)-2-hydroxy-2-phenylpropylamino}propan-2-yl]isoquinoline-6-sulfonamide dihydrochloride anhydride], the “appearance (moisture absorption)” value in data set [2] was “no weight gain or appearance change”. In data set [2] (Day 7, about 100 mg solid), the “percent increase in weight” value is reported as “did not at all exhibit any weight change; also recorded: no weight gain”. Besides, in data set [3], the “transparency of aqueous solution by visual observation” value is “extremely clear, showing complete dissolution; also recorded: colorless and clear”; the “precipitate in aqueous solution” value was “no precipitate was found”. Moreover, the “appearance change due” value in data set [1] (after 1 hour of standing) was “no appearance change”. Moreover, the weight increase result in data set [1] (after 1 hour of standing, 100 mg solid) is reported as “no appearance change nor weight gain; also recorded: did not at all exhibit any weight change”. Also, in data set [1] (after 3 days of standing), the “change (appearance, weight) after prolonged standing” value was “no change was observed”. For the same compound, in data set [4] (Day 14), the “appearance and purity (HPLC) (heat stability)” value is on record as “stable, with no change in appearance nor decomposition; also recorded: stable”.
For the compound `C[C@H](CNC[C@@](C)(O)c1ccccc1)NS(=O)(=O)c1ccc2cnccc2c1.Cl` [compound (1), N—[(R)-1-{(S)-2-hydroxy-2-phenylpropylamino}propan-2-yl]isoquinoline-6-sulfonamide monohydrochloride, reference compound], the “appearance (moisture absorption)” value in data set [2] is listed as “evident moisture absorption phenomenon”. Moreover, the “transparency of aqueous solution by visual observation” value in data set [3] (monohydrochloride) was “translucent; also recorded: translucent and had not dissolved completely”. In data set [3], the “precipitate in aqueous solution” value is reported as “a precipitate was found”. Also, in data set [4] (Day 7, monohydrochloride), the “appearance / property (heat stability)” value is recorded as “marked property degradation; also recorded: unstable with an evident change in appearance”.
